# Like-named read-outs stand apart in the source and are kept apart here.
# Columns and labels:
# [1] = target: T1, rhSTAT3 (Homo sapiens, UniProt P40763); experiment: Competition assay with cysteine-blocking reagent Alexa Fluor 488 C5 maleimide; assay type: binding; conditions: 2 h, 10 μM Alexa Fluor 488 C5 maleimide
# T1 construct: Full-length cDNAs were obtained from a human cDNA library by PCR; Avi-tag (biotinylated in BirA-BL21) (N); made in house; host or cells: Escherichia coli BirA-BL21
# Method: rhSTAT3 (0.89 μM) in 100 mM HEPES was incubated with 10 μM Alexa Fluor 488 C5 maleimide (Invitrogen, Paisley, UK), a thiol-reactive probe, in the presence or absence of 50 or 100 μM BENDA or HP2 for 2 h at room temperature. Samples were diluted in SDS-PAGE sample buffer without boiling or 2-mercaptoethanol and run on an SDS-PAGE gel. The protein was transferred to a nitrocellulose membrane and then blotted with Ni-HRP. The Alexa-labeled rhSTAT3 was analyzed by fluorescence (excitation/emission: 493/516 nm) and western blotting with Ni-HRP.
# [2] = tested on: c-Myc protein in MDA-MB-468 cells; experiment: Western blotting of c-Myc protein; assay type: cell-based, human; conditions: MDA-MB-468, 50 or 100 μM, 24 h
# Method: (§1) Cells were treated with PhosphoSafe Extraction Reagent. Total proteins (40 μg) were subjected to SDS-PAGE and then transferred onto a nitrocellulose membrane. Membranes were blocked in 5% skim milk in TBS/0.1% Tween 20, incubated with primary antibodies diluted at 1:1000 in 1.5% skim milk in TBS (pH 7.4)/0.1% Tween 20 overnight at 4°C, and then incubated with HRP-conjugated secondary antibodies diluted at 1:5000 in TBS (pH 7.4)/0.1% Tween 20 for 1 h at room temperature. Immunoblots were developed with a chemiluminescent substrate.
# [3] = target: T2, nuclear STAT3 of MDA-MB-468 cells (Homo sapiens, UniProt P40763); experiment: STAT3 DNA binding assay (TransAM ELISA); assay type: cell-based; conditions: MDA-MB-468, 24 h; BENDA 25, 50, 100 μM, HP2 100 μM
# T2 construct: endogenous in cells; host or cells: MDA-MB-468
# T2 sequence (P40763 2-770 limits assumed): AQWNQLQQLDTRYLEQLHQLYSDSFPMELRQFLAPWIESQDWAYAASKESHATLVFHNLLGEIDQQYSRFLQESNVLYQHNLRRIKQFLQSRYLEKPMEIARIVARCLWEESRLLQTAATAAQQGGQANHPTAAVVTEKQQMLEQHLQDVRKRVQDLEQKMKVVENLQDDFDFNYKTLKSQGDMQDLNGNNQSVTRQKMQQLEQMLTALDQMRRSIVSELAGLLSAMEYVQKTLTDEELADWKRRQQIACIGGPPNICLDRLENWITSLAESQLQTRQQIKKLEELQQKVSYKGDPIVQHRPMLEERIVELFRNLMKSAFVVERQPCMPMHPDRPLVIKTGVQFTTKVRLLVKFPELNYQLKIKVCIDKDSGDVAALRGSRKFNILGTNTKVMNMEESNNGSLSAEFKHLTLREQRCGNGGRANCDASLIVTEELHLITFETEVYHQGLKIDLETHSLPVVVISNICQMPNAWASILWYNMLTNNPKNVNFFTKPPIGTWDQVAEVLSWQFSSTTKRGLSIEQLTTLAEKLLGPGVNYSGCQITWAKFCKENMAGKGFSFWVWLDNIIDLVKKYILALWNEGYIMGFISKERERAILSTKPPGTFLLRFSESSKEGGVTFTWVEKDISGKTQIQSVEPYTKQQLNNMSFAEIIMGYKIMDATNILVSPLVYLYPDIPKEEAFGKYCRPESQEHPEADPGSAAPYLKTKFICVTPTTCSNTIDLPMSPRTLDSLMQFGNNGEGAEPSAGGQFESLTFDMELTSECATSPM
# Method: The DNA-binding activity of STAT3 was evaluated with a TransAM ELISA kit (Active Motif, Carlsbad, CA, USA). The assay and nuclear extract preparation were performed according to the manufacturer’s instructions. Heat-denatured nuclear extract was used as a negative control. The nuclear extract (20 μg) was added to each well of a 96-well microtiter plate coated with immobilized oligonucleotides containing the STAT3 consensus binding site and incubated at room temperature for 1 h. They were incubated with anti-STAT3 antibody for 1 h at room temperature, followed by HRP-conjugated antibody for 1 h at room temperature. The developing solution was added, the reaction was terminated by the addition of stop solution, and the absorbance was measured at 450 nm with a reference wavelength of 655 nm (SpectraMax M5SK, Molecular Devices, Sunnyvale, CA, USA).
# [4] = target: T3, STAT3 Cys550 mutant (C550A) (Homo sapiens, UniProt P40763, C550A); experiment: SH2 binding AlphaScreen assay with Cys550 mutant recombinant STAT3; conditions: 100 μM BENDA, 375 nM mutant STAT3, 30 min
# T3 construct: Full-length cDNAs were obtained from a human cDNA library by PCR; Avi-tag (N); 6His-tag (N); made in house; host or cells: Escherichia coli (pET-28a; host inferred to be the same BirA-BL21 as for wild type)
# T3 sequence (P40763 whole entry C550A): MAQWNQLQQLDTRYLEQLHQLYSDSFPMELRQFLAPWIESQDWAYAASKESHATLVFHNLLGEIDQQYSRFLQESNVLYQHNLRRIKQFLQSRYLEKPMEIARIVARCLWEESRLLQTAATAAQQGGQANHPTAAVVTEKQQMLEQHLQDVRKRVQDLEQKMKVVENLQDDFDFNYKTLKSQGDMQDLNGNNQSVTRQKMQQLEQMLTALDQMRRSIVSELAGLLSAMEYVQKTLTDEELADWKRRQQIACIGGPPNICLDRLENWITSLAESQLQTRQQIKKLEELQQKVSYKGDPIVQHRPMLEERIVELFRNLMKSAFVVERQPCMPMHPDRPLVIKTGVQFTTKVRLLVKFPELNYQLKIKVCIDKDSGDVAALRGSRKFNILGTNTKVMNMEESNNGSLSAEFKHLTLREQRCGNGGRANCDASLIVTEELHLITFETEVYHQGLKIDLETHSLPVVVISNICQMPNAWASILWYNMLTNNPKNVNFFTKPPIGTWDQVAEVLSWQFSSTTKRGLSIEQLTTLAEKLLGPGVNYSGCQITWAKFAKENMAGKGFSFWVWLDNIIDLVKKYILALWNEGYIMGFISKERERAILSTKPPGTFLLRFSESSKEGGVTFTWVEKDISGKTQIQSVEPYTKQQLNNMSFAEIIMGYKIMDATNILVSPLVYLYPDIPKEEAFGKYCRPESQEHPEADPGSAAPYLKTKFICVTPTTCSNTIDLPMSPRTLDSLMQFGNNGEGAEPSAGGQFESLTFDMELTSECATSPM
# Method: Point mutations were introduced into recombinant human STAT3 (rhSTAT3) by inverse PCR. We mutated Cys468, Cys542, Cys550, Cys687, and Cys712 near the SH2 domain to alanine. Inverse PCR was performed by using pBluescript II KS (+) as a template, KOD-Plus-ver. 2 (Toyobo, Osaka, Japan), and the following oligonucleotide primer set: Cys468 (forward: 5’-TCCAACATCG CTCAGATGCC AAATG-3’, reverse: 5′-GATCACCACA ACTGGCAAGG AGTGG-3′); Cys542 (forward: 5′-GAATTATTCAGGGGCTCAGATCACATGGGCTAAAT-3′, reverse: 5′-ACACCAGGTC CCAAGAGTTT CTCTGCC-3′); Cys550 (forward: 5′-GCTAAATTTG CCAAAGAAAA CATGGCTGGC-3′, reverse: 5′-CCATGTGATC TGACACCCTG AATAATTCA CACC-3′); Cys687 (forward: 5′-GGAAAGTATG CTCGGCCAGA GAGCCAG-3′, reverse: 5′-GAATGCCTCC TCCTTGGGAA TGTCAGG-3′); and Cys712 (forward: 5′-AAGTTTATCG CTGTGACACC AACGACCTGC-3′, reverse: 5′-GGTCTTCAGG TATGGGGCAG CGCTAC-3′). Inverse PCR (1 × PCR buffer, 1.5 mM MgSO4, 15 pmol 5′ primer and 3′ primer, 0.2 mM dNTPs, 50 ng STAT3 cDNA, 1 U KOD Plus) was performed under the following conditions: 2 min at 94°C, (10 s at 98°C, and 6.5 min at 68°C)×7 cycles. The amplified fragment was ligated by using Ligation High ver. 2 (Toyobo). The resultant plasmid was cloned into the HindIII/XhoI sites of modified pET-28a (+). The nucleotides coding for human mutant STAT3 in pET-28a (+) were named mutant STAT3 His-Avi-pET28a (+). […]
# [5] = tested on: STAT3-Y705 phosphorylation in MDA-MB-468 cells; experiment: Western blotting of STAT3-Y705 phosphorylation; assay type: cell-based, human; conditions: MDA-MB-468, 50 or 100 μM, 24 h
# Method: as §1
# [6] = tested on: cells; set-up: method as in PMID 22768280; conditions: cited from earlier work
# [7] = tested on: MDA-MB-468 cells (high P-STAT3); experiment: WST cell proliferation assay, MDA-MB-468; assay type: cell-based, human; conditions: 0.1-100 μM, 48 h, WST-8
# Method: Cells were plated in a 96-well tissue culture plate (1000 cells per well) and incubated for 48 h. After incubation, the cells were treated with vehicle, 0.1–100 μM BENDA, or HP2 for 48 h. Samples were assayed in triplicate. After incubation, WST-8 solution (10 μL; Dojindo Molecular Technologies, Rockville, MD, USA) was added to each well and incubated at 37°C for 4 h, and the absorbance was read at 450 nm.
# T1 sequence (P40763 whole entry): as the sequence (P40763 whole entry C550A) above, with A550C counted along it
structure (smiles),measurement,setting,value
"Cn1c(CCCC(=O)O)nc2cc(N(CCCl)CCCl)ccc21 [BENDA, 4-{5-[bis(2-chloroethyl)amino]-1-methyl-2-benzimidazolyl} butyric acid]",Fluorescence intensity of Alexa-labeled rhSTAT3 (reduced to),[1]; 50 μM compound,62%
same,Fluorescence intensity of Alexa-labeled rhSTAT3 (reduced to),[1]; 100 μM compound,52%
same,Expression of c-Myc protein,[2],inhibited the expression of c-Myc protein
same,Inhibition of STAT3 binding to oligonucleotides containing STAT3 consensus binding site,[3],inhibited
same,inhibition at 100 µM,[4],3%
same,Phosphorylation of STAT3-Y705,[5],inhibited the phosphorylation of STAT3-Y705 in a concentration-dependent manner
same,Cell cycle arrest,[6]; 50 μM,transiently arrested cells in G2
same,Cell cycle arrest,[6]; 200 μM,arrested cells in S phase
same,Inhibition of proliferation of MDA-MB-468 cells,[7],inhibited proliferation
